Entries after “also recorded” stand apart in the source; their conditions may differ. Where a SMILES comes first, the peptide text is derived from it. Bridges are numbered along the chain shown (N, C = ends). [ ]: non-standard residue; d: D form. The star is where a group is joined. X1 = OC[C@H]1OC(*)[C@H](O)[C@@H](O)[C@@H]1O; Dap = NC[C@H](N)C(=O)O
Columns and labels:
[1] = target: human Mu Opioid Receptor (MOR) (Homo sapiens, UniProt P35372); assay: biochemical; format: binding
[2] = target: OTR (Homo sapiens, UniProt P30559); assay: EC50 (nM) | OTR
Sequence of OTR (P30559 whole entry, looked up): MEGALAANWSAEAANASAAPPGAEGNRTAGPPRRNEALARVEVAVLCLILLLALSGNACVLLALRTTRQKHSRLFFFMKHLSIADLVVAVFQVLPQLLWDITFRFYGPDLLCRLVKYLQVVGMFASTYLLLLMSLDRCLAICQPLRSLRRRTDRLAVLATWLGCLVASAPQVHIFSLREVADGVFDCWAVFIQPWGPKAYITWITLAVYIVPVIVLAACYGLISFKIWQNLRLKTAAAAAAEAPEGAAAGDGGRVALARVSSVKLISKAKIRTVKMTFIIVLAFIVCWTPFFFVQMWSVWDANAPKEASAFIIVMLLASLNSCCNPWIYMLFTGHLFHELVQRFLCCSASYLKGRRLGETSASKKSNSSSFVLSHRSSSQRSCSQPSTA
Description: Table printed on a drawing sheet, FIG. 6
The patent's description of the figure: FIG. 6 is a table showing EC50 for OXTR agonistic activity for some of the representative cyclic oligopeptides of the invention.
First copying reader's note: Each value cell holds the EC50 together with its ± error; NA is not defined on the sheet.

[3] = 52° C. warm water tail flick assay, iv injection; format: in vivo, CD-1 mice; conditions: 10 mg/kg iv; for anti-nociception in tail flick assay: 10 second cutoff, male and female CD-1 mice
[4] = Paclitaxel-induced CIPN, Von Frey filaments mechanical threshold, icv injection; format: in vivo, CD-1 mice; conditions: 10 nmol icv on day 8, 2 mg/kg paclitaxel on days 1, 3, 5, 7
[5] = 52° C. warm water tail flick assay, icv injection; format: in vivo; conditions: 10 nmol icv, male and female CD-1 mice

Sequence of human Mu Opioid Receptor (MOR) (P35372 whole entry): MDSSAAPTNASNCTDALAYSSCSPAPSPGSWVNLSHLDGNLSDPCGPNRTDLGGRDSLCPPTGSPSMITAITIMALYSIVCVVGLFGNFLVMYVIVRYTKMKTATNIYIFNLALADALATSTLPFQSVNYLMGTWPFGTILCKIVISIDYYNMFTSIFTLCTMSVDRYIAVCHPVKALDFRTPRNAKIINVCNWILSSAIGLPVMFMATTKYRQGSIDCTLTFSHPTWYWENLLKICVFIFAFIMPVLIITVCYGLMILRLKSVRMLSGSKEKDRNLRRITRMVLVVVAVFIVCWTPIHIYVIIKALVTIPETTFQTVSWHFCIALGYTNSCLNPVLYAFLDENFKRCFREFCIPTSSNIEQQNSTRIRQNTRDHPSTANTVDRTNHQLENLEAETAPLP

| SMILES | IC50 [1] [nM] | Ki [1] [nM] | EC50 [2] [nM] | peak effect in tail flick assay [3] | anti-nociception in tail flick assay [3] | anti-nociception in CIPN model (mechanical threshold) [4] | anti-nociception in tail flick assay [5] | anti-nociception in tail flick assay ([3]; listed as Native OT) |
| --- | --- | --- | --- | --- | --- | --- | --- | --- |
| CC[C@H](C)[C@@H]1NC(=O)[C@H](Cc2ccc(O)cc2)NC(=O)[C@@H](N)CC(=O)NC[C@@H](C(=O)N2CCC[C@H]2C(=O)N[C@@H](CC(C)C)C(=O)NCC(N)=O)NC(=O)[C@H](CC(N)=O)NC(=O)[C@H](CCC(N)=O)NC1=O [2LS118-1, Asp-Tyr-Ile-Gln-Asn-Dap-Pro-Leu-Gly-CONH2 (SEQ ID NO: 5)] (H-DYIQN[Dap]PLG-NH2; lactam 1-6) | > 2500 | > 2500 | 3760 ± 3120 |  |  |  |  |  |
| CC[C@H](C)[C@@H]1NC(=O)[C@H](Cc2ccc(O)cc2)NC(=O)[C@@H](N)CCC(=O)NC[C@@H](C(=O)N2CCC[C@H]2C(=O)N[C@@H](CC(C)C)C(=O)NCC(N)=O)NC(=O)[C@H](CC(N)=O)NC(=O)[C@H](CCC(N)=O)NC1=O [2LS118-2, Glu-Tyr-Ile-Gln-Asn-Dap-Pro-Leu-Gly-CONH2 (SEQ ID NO: 6)] (H-EYIQN[Dap]PLG-NH2; lactam 1-6) | > 2500 | > 2500 | 7040 ± 2960 |  |  |  |  |  |
| CC[C@H](C)[C@@H]1NC(=O)[C@H](Cc2ccc(O)cc2)NC(=O)[C@@H](N)CNC(=O)C[C@@H](C(=O)N2CCC[C@H]2C(=O)N[C@@H](CC(C)C)C(=O)NCC(N)=O)NC(=O)[C@H](CC(N)=O)NC(=O)[C@H](CCC(N)=O)NC1=O [2LS118-3, Dap-Tyr-Ile-Gln-Asn-Asp-Pro-Leu-Gly-CONH2 (SEQ ID NO: 7)] (H-[Dap]YIQNDPLG-NH2; lactam 1-6) | > 2500 | > 2500 |  |  |  |  |  |  |
| CC[C@H](C)[C@@H]1NC(=O)[C@H](Cc2ccc(O)cc2)NC(=O)[C@@H](N)CC(=O)NC[C@@H](C(=O)N2CCC[C@H]2C(=O)N[C@@H](CC(C)C)C(=O)N[C@@H](COC2O[C@H](CO)[C@@H](O)[C@H](O)[C@H]2O)C(N)=O)NC(=O)[C@H](CC(N)=O)NC(=O)[C@H](CCC(N)=O)NC1=O (stereo partly drawn) [2LS118-4, Asp-Tyr-Ile-Gln-Asn-Dap-Pro-Leu-SerGlc-CONH2 (SEQ ID NO: 8)] (H-DYIQN[Dap]PLS(X1)-NH2; lactam 1-6; N-terminus assumed) |  |  |  | significantly higher peak effect than 2LS118-1 | near-maximal efficacy comparable to 10 mg/kg morphine; also recorded: almost half to full maximal efficacy vs. morphine | high anti-nociceptive efficacy; also recorded: substantially equivalent anti-nociception | the same degree and duration of anti-nociceptive activity; also recorded: substantially equivalent anti-nociception |  |
| CC[C@H](C)[C@@H]1NC(=O)[C@H](Cc2ccc(O)cc2)NC(=O)[C@@H](N)CSSC[C@@H](C(=O)N2CCC[C@H]2C(=O)N[C@@H](CC(C)C)C(=O)NCC(N)=O)NC(=O)[C@H](CC(N)=O)NC(=O)[C@H](CCC(N)=O)NC1=O [native OT, Cys-Tyr-Ile-Gln-Asn-Cys-Pro-Leu-Gly-CONH2 (SEQ ID NO: 1), reference compound] |  |  |  |  | no anti-nociception; also recorded: no efficacy |  | the same degree and duration of anti-nociceptive activity; also recorded: substantially equivalent anti-nociception | no effect |

Reference: patent publication US12649765B2 (Arizona Board of Regents on Behalf of the University of …, priority 2020, dated 2026)
